Reference: patent EP0785714B2, “ANTIMICROBIAL COMPOSITION” (Moberg, Sven, priority 1994, dated 1996)
Like-named read-outs stand apart in the source and are kept apart here.

Columns and labels:
Staphylococcus aureus [1] = assay: MIC of propylene glycol alone and mixed with lactic acid; type: cell-based; conditions: propylene glycol (100%) alone
Text: (§1) The minimal inhibitory concentration (MIC) for propylene glycol (100%) tested on the bacterium Staphylococcus aureus and the dermophyte Tricophyton rubrum dropped from 8 % to 0.15 % and 0.38 % respectively if lactic acid was mixed with propylene glycol in the ratios 3:10 or 2:3. The composition gave a minimal inhibitory effect at concentration 0.25% and 0.5 % respectively. These MIC-values should be compared with the considerably higher MIC-values of 40 %, which were obtained when propylene glycol at 20 % was combined with aluminium acetotartrate (SE 8802257-9). […] Also other concentration ratios gave stronger but not optimum effect. The antimicrobial effects were not proportionate to the degree of acidity (pH).

Tricophyton rubrum = assay: as above; type: cell-based; conditions: propylene glycol (100%) alone
Text: as §1

fungi and bacteria = conditions: in vitro, cited from earlier work; for antimicrobial effect on comparison: 30 % diol
Pityrosporum ovale = conditions: 50 % aqueous solution; cited from earlier work
Candica albicans = assay: MIC-plate determination (agar dilution), agents A1 and A2; type: cell-based; conditions: clinical isolate
Description: (§2) A determination of the minimum inhibitory concentration (MIC) was carried out for different compositions of acid/glycol on different microorganisms.
(§3) The components included in the composition were weighed with decimal precision. A dilution series in sterile destilled water was made where the completed composition is dilution 1. Dilution 2 is 50 % of the composition, dilution 3 is 25 % etc. One thus gets a series of 100 - 50 - 25 - 12.5 - 6.3- 3.1 - 1.6 - 0.8 - 0.4 - 0.2 - 0.1 %. To said dilutions the same amount (volume) of Oxoids Isosensitest agar was added at 62.4 g medium per litre.
(§4) The Isosensitest agar is prepared and sterilized according to the maker's instructions. […] Furthermore a plate without the composition was prepared, called a blanc plate. From the different mixtures MIC-plates are moulded in sterile Petri dishes. From each agent a suspension was made corresponding to MacFarland 1. From this 0.2 ml was added to each MIC-plate and the blanc plate with a pipette. The MIC-plates were incubated in a thermostat having an optimum temperature for the agent. The MIC-value is the concentration of the composition on the MIC-plate where growth has stopped completely. Example. Agent 1 grows in 0.1 %, 0.2 %, 0.4 %, On the 0.8 %-plate the growth is weak but visible.

Malassezia furfur = assay: MIC-plate determination (agar dilution), agent B1; type: cell-based; conditions: agent B1, Malassezia furfur (Pityrosporum ovale)
Description: as §2, §3, §4

Pityrosporum orbiculare = assay: MIC-plate determination (agar dilution), agent B2; type: cell-based; conditions: agent B2, Pityrosporum orbiculare (Pityrosporum ovale)
Description: as §2, §3, §4

Trichophyton rubrum = assay: MIC-plate determination (agar dilution), agents C1 and C2; type: cell-based; conditions: clinical isolate
Description: as §2, §3, §4

Aspergillus niger = assay: MIC-plate determination (agar dilution), agents D1 and D2; type: cell-based; conditions: clinical isolate
Description: as §2, §3, §4

Staphylococcus aureus [2] = assay: MIC-plate determination (agar dilution), agents E1 and E2; type: cell-based; conditions: clinical isolate
Description: as §2, §3, §4

Streptococcus pyogenes = assay: MIC-plate determination (agar dilution), agents F1 and F2; type: cell-based; conditions: clinical isolate
Description: as §2, §3, §4

Pseudomonas aeruginosa = assay: MIC-plate determination (agar dilution), agents G1 and G2; type: cell-based; conditions: clinical isolate
Description: as §2, §3, §4

[3] = pH in the various MIC plates; type: physicochemical
Description: as §3, §4

## CC(O)CO (stereo not drawn) [Composition 1, Propylene glycol]
Staphylococcus aureus [1]
  minimal inhibitory concentration (MIC) for propylene glycol: 8%
Tricophyton rubrum
  minimal inhibitory concentration (MIC) for propylene glycol: 8%
Fungi and bacteria
  antimicrobial effect on comparison: about as effective as 10 % hexylene glycol
Pityrosporum ovale
  effect against Pityriasis versicolor: effective

## Hexylene glycol [Composition 3]
Fungi and bacteria; 1 % of the agent
  antimicrobial effect: lacked effect
Fungi and bacteria; 5 % hexylene glycol
  antimicrobial effect: a certain antimicrobial effect
Fungi and bacteria; 10-30 % hexylene glycol
  antimicrobial effect: showed antimicrobial effect within 20 hours

## OCCCCO [Composition 2, Butylene glycol]
Fungi and bacteria
  antimicrobial effect on comparison: about as effective as 10 % hexylene glycol

## CC(O)CC(C)(C)O (stereo not drawn) [Composition 3]
Candica albicans; agent A1, Candica albicans
  MIC-value: 6.3%
Candica albicans; agent A2, Candica albicans
  MIC-value: 6.3%
Malassezia furfur
  MIC-value: 25%
Pityrosporum orbiculare
  MIC-value: 25%
Trichophyton rubrum; agent C1, Trichophyton rubrum
  MIC-value: 0.8%
Trichophyton rubrum; agent C2, Trichophyton rubrum
  MIC-value: 0.8%
Aspergillus niger; agent D1, Aspergillus niger
  MIC-value: 6.3%
Aspergillus niger; agent D2, Aspergillus niger
  MIC-value: 6.3%
Staphylococcus aureus [2]; agent E1, Staphylococcus aureus
  MIC-value: 12.5%
Staphylococcus aureus [2]; agent E2, Staphylococcus aureus
  MIC-value: 12.5%
Streptococcus pyogenes; agent F1, Streptococcus pyogenes
  MIC-value: 12.5%
Streptococcus pyogenes; agent F2, Streptococcus pyogenes
  MIC-value: 12.5%
Pseudomonas aeruginosa; agent G1, Pseudomonas aeruginosa
  MIC-value: 1.6%
Pseudomonas aeruginosa; agent G2, Pseudomonas aeruginosa
  MIC-value: 3.1%
[3]; MIC-plate 0.05 (% composition in Isosensitest agar)
  pH in the MIC plate: 7
[3]; MIC-plate 0.1 (% composition in Isosensitest agar)
  pH in the MIC plate: 7
[3]; MIC-plate 0.2 (% composition in Isosensitest agar)
  pH in the MIC plate: 7
[3]; MIC-plate 0.4 (% composition in Isosensitest agar)
  pH in the MIC plate: 7
[3]; MIC-plate 0.8 (% composition in Isosensitest agar)
  pH in the MIC plate: 7
[3]; MIC-plate 1.6 (% composition in Isosensitest agar)
  pH in the MIC plate: 7
[3]; MIC-plate 3.1 (% composition in Isosensitest agar)
  pH in the MIC plate: 7
[3]; MIC-plate 6.3 (% composition in Isosensitest agar)
  pH in the MIC plate: 7
[3]; MIC-plate 12.5 (% composition in Isosensitest agar)
  pH in the MIC plate: 7
[3]; MIC-plate 25 (% composition in Isosensitest agar)
  pH in the MIC plate: 7
[3]; MIC-plate 50 (% composition in Isosensitest agar)
  pH in the MIC plate: 7
